In article PMC7584622, “Sensing of autoinducer-2 by functionally distinct receptors in prokaryotes” (Nature Communications, 2020):
Values joined by “and” are separate entries in the source; they are usually repeats but may differ in a detail not shown here. Equal values may be shown once.

Tests used:
PctB-LBDE146D = target: T1, PctB-LBDE146D (Pseudomonas aeruginosa, UniProt Q9HW91, E146D); assay: biochemical; type: binding; conditions: 700 μM DPD/AI-2 into 70 μM PctB-LBD E146D
T1 construct: the dCACHE-type LBDs of PctB and PctC; His6 (N, cleaved yes); made in house; host or cells: E. coli BL21(DE3) (pET-28a derivative)
T1 sequence (Q9HW91 32-276 E146D): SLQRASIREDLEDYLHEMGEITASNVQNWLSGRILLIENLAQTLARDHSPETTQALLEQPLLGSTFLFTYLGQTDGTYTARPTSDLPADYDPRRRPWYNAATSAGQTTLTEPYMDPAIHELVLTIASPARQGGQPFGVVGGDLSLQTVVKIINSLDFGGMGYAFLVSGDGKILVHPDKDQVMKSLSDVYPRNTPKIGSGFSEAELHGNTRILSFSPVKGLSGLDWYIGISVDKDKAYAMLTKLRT

PctC-LBDF147Y = target: T2, PctC-LBDF147Y (Pseudomonas aeruginosa, UniProt Q9HW93, F147Y); assay: biochemical; type: binding; conditions: 700 μM DPD/AI-2 into 70 μM PctC-LBD F147Y
T2 construct: the dCACHE-type LBDs of PctB and PctC; His6 (N, cleaved yes); made in house; host or cells: E. coli BL21(DE3) (pET-28a derivative)
T2 sequence (Q9HW93 32-279 F147Y): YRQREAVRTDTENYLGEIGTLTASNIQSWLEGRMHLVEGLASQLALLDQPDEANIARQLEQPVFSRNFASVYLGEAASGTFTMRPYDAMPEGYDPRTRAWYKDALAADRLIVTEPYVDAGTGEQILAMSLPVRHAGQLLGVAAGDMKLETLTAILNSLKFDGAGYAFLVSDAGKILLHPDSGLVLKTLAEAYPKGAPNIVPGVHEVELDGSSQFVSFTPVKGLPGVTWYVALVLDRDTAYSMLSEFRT

PctA-LBD Y101A = target: T3, PctA-LBD Y101A (Pseudomonas aeruginosa, UniProt G3XD24, Y101A); assay: biochemical; type: binding; conditions: PctA-LBD Y101A 70 μM; DPD/AI-2 700 μM
T3 construct: Amino acids 30-278 and 36-360 of PctA and TlpQ, respectively; His6 (N, cleaved yes); made in house; host or cells: E. coli BL21(DE3) (pET-28a derivative)
T3 sequence (G3XD24 30-278 Y101A): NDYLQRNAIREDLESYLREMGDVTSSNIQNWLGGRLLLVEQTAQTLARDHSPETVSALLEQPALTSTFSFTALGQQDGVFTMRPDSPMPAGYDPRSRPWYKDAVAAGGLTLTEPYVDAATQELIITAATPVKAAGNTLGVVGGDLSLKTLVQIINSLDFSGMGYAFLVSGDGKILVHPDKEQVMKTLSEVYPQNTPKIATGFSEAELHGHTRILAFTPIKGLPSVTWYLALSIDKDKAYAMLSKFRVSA

PctA-LBD M111A = target: T4, PctA-LBD M111A (Pseudomonas aeruginosa, UniProt G3XD24, M111A); assay: biochemical; type: binding; conditions: PctA-LBD M111A 70 μM; DPD/AI-2 700 μM
T4 construct: Amino acids 30-278 and 36-360 of PctA and TlpQ, respectively; His6 (N, cleaved yes); made in house; host or cells: E. coli BL21(DE3) (pET-28a derivative)
T4 sequence (G3XD24 30-278 M111A): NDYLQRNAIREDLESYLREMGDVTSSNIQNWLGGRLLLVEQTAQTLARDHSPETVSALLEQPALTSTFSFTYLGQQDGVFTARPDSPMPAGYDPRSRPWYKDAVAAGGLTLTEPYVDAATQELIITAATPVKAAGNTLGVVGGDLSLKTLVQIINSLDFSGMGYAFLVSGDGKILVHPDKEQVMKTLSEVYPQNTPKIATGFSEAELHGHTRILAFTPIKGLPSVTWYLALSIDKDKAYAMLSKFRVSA

PctA-LBD R126A = target: T5, PctA-LBD R126A (Pseudomonas aeruginosa, UniProt G3XD24, R126A); assay: biochemical; type: binding; conditions: PctA-LBD R126A 70 μM; DPD/AI-2 700 μM
T5 construct: Amino acids 30-278 and 36-360 of PctA and TlpQ, respectively; His6 (N, cleaved yes); made in house; host or cells: E. coli BL21(DE3) (pET-28a derivative)
T5 sequence (G3XD24 30-278 R126A): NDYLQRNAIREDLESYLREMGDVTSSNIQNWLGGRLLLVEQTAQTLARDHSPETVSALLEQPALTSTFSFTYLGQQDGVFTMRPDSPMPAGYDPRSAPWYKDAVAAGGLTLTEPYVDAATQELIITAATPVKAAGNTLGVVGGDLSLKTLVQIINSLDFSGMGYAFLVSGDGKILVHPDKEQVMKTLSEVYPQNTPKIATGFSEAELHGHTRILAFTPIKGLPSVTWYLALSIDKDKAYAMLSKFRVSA

PctA-LBD Y144A = target: T6, PctA-LBD Y144A (Pseudomonas aeruginosa, UniProt G3XD24, Y144A); assay: biochemical; type: binding; conditions: PctA-LBD Y144A 70 μM; DPD/AI-2 700 μM
T6 construct: Amino acids 30-278 and 36-360 of PctA and TlpQ, respectively; His6 (N, cleaved yes); made in house; host or cells: E. coli BL21(DE3) (pET-28a derivative)
T6 sequence (G3XD24 30-278 Y144A): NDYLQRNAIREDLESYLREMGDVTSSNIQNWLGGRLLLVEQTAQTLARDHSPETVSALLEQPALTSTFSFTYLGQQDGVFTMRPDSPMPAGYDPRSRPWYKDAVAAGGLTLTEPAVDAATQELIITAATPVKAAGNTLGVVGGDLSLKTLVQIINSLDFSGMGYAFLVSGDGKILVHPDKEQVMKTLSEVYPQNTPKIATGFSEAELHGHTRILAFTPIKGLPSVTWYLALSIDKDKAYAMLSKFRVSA

PctA-LBD A147F = target: T7, PctA-LBD A147F (Pseudomonas aeruginosa, UniProt G3XD24, A147F); assay: biochemical; type: binding; conditions: PctA-LBD A147F 70 μM; DPD/AI-2 700 μM
T7 construct: Amino acids 30-278 and 36-360 of PctA and TlpQ, respectively; His6 (N, cleaved yes); made in house; host or cells: E. coli BL21(DE3) (pET-28a derivative)
T7 sequence (G3XD24 30-278 A147F): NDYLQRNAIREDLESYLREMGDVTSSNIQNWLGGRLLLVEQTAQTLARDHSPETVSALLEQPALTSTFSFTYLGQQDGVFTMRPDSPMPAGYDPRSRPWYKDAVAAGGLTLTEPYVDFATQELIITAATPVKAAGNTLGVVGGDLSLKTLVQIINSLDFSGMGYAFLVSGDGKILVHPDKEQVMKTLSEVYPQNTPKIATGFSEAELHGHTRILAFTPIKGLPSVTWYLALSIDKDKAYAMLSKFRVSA

PctA-LBD D173A = target: T8, PctA-LBD D173A (Pseudomonas aeruginosa, UniProt G3XD24, D173A); assay: biochemical; type: binding; conditions: PctA-LBD D173A 70 μM; DPD/AI-2 700 μM
T8 construct: Amino acids 30-278 and 36-360 of PctA and TlpQ, respectively; His6 (N, cleaved yes); made in house; host or cells: E. coli BL21(DE3) (pET-28a derivative)
T8 sequence (G3XD24 30-278 D173A): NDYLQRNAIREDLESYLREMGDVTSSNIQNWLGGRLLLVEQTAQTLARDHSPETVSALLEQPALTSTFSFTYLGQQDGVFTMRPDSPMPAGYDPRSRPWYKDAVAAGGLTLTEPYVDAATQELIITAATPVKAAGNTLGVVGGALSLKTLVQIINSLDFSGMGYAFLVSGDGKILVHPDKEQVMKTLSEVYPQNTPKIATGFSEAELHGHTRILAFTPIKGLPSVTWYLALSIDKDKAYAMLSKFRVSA

KinD = target: T9, KinD (Bacillus subtilis, UniProt O31671); assay: in vitro kinase assay, KinD autophosphorylation (LC-MS/MS); type: biochemical, B. subtilis; conditions: 100 μM ATP, 30 min, 30 °C
T9 construct: The genes encoding full-length KinD and rpHK1S-Z16 were cloned with a C-terminal His6 tag into pHSe5; made in house; host or cells: E. coli BL21(DE3) ΔluxS (pHSe5), membrane fractions
T9 sequence (O31671 whole entry): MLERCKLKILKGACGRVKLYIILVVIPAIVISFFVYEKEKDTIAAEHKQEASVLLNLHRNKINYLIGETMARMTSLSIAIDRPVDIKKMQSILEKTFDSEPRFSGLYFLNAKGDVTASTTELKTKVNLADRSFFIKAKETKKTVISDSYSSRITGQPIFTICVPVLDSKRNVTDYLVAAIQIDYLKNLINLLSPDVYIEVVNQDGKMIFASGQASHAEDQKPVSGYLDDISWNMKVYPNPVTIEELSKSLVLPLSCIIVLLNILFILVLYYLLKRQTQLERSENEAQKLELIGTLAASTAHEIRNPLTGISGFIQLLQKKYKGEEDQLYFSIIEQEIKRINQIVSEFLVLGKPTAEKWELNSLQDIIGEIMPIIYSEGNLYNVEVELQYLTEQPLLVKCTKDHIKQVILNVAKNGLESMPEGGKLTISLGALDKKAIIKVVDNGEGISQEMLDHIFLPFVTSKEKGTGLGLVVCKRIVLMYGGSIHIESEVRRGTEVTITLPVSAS
Method: Twenty micrograms of membrane fractions containing KinD was preincubated in a 50-μl reaction system containing 50 mM Tris-HCl (pH 7.8), 2 mM DTT, 25 mM NaCl, 25 mM KCl, 5 mM MgCl2 for 10 min at 30 °C. […] A control experiment was performed without ATP to check the initial phosphorylation state of KinD. After 30 min incubation at 30 °C, products were resolved by SDS-PAGE, and the gel bands corresponding to KinD were excised and used for detection and quantification of phosphorylation by nano-LC-MS/MS.
Gel slices excised from SDS-PAGE gels were destained with three washes in 100 μl of 100 mM ammonium bicarbonate in 50% acetonitrile at 37 °C for 15 min. Destained gel pieces were dried in a SpeedVac (Thermo Fisher Scientific) for 15 min. 10 mM DTT in 25 mM ammonium bicarbonate was added to cover the gel pieces and incubated at 56 °C for 1 h. […] The dried peptide samples were resolubilized in 0.1% formic acid and analyzed in C18 reversed-phase column connected to an EASY-nLC 1000 interfaced via a Nanospray Flex ion source to an Orbitrap Fusion Tribrid mass spectrometer (Thermo Fisher Scientific). […] Protein identification and quantification were performed using Mascot Daemon version 2.5.1 (Matrix Science, Boston, USA) considering the specific modifications.

P. aeruginosa PAO1 = assay: confocal laser-scanning microscopy of static biofilms (biovolume, COMSTAT); conditions: 100 nM DPD/AI-2
Method: Biofilms were stained with crystal violet and quantified using optical density measurement after incubation at 37 °C for 48 h. […] Images were reconstructed using the Imaris 9.0 software package (Bitplane, AG) (Supplementary Fig. 6) and biofilm biovolumes were quantified using COMSTAT (www.comstat.dk). Biovolumes were calculated from three biological replicates and each biological replicate was derived from an average of five confocal images.
For confocal laser-scanning microscopy and image analysis of static biofilms, overnight cultures of P. aeruginosa strains carrying pME6032-mCherry were diluted with TSB medium to an OD600 of 0.01 (~2 × 10^7 CFU ml^−1). […] The cultures were incubated at 37 °C under static conditions and biofilms were visualized using a Revolution XD laser-scanning confocal microscope (Andor, Belfast, Northern Ireland) after 1, 10, and 19 h. The excitation/emission wavelength for mCherry was 568/590 nm. Images were reconstructed using the Imaris 9.0 software package (Bitplane, AG) and the biovolumes were calculated using COMSTAT 2.1[46] plugin in ImageJ software (version 1.48). Biovolumes were measured and calculated from three biological replicates and each biological replicate was derived from an average of five confocal images.

Which results are given for `CC(=O)C(=O)C(O)CO` (stereo not shown) [DPD/AI-2, 4,5-dihydroxy-2,3-pentanedione]?
Kd (PctB-LBDE146D): 0.22 µM and 0.27 µM and 0.23 µM; Kd (PctC-LBDF147Y): 0.24 µM and 0.17 µM and 0.21 µM; Kd (PctA-LBD Y101A): 33 µM and 42 µM and 34 µM; Kd (PctA-LBD M111A): 14 µM and 21 µM and 17 µM; Kd (PctA-LBD R126A): 49 µM and 33 µM and 41 µM; Kd (PctA-LBD Y144A): 16 µM and 14 µM and 12 µM; Kd (PctA-LBD A147F): 11 µM and 10 µM and 12 µM; Kd (PctA-LBD D173A): 12 µM and 14 µM and 13 µM and 10 µM; Phosphorylation level (%) of KinD (KinD; 10 μM DPD/AI-2): 27.45% and 24.59% and 21.92% and 23.68%; Phosphorylation level (%) of KinD (KinD; 50 μM DPD/AI-2): 49.23% and 54.72% and 52.70% and 57.14%; Biovolume of P. aeruginosa (P. aeruginosa PAO1; WT, 1 h): 28364 μm3 mm-2 and 23058 μm3 mm-2 and 27608 μm3 mm-2; Biovolume of P. aeruginosa (P. aeruginosa PAO1; WT, 10 h): 1281908 μm3 mm-2 and 1109100 μm3 mm-2 and 1052160 μm3 mm-2; Biovolume of P. aeruginosa (P. aeruginosa PAO1; WT, 19 h): 3128446 μm3 mm-2 and 3141281 μm3 mm-2 and 3321156 μm3 mm-2; Biovolume of P. aeruginosa (P. aeruginosa PAO1; ΔpctA, 1 h): 25418 μm3 mm-2 and 25743 μm3 mm-2 and 24604 μm3 mm-2; Biovolume of P. aeruginosa (P. aeruginosa PAO1; ΔpctA, 10 h): 609991 μm3 mm-2 and 657748 μm3 mm-2 and 721040 μm3 mm-2; Biovolume of P. aeruginosa (P. aeruginosa PAO1; ΔpctA, 19 h): 1305959 μm3 mm-2 and 1192157 μm3 mm-2 and 1109432 μm3 mm-2; Biovolume of P. aeruginosa (P. aeruginosa PAO1; ΔpctAΔtlpQ, 1 h): 24520 μm3 mm-2 and 23099 μm3 mm-2 and 23881 μm3 mm-2; Biovolume of P. aeruginosa (P. aeruginosa PAO1; ΔpctAΔtlpQ, 10 h): 372013 μm3 mm-2 and 288390 μm3 mm-2 and 355734 μm3 mm-2; Biovolume of P. aeruginosa (P. aeruginosa PAO1; ΔpctAΔtlpQ, 19 h): 111554 μm3 mm-2 and 108961 μm3 mm-2 and 114758 μm3 mm-2; Biovolume of P. aeruginosa (P. aeruginosa PAO1; ΔtlpQ, 1 h): 22029 μm3 mm-2 and 31306 μm3 mm-2 and 26285 μm3 mm-2; Biovolume of P. aeruginosa (P. aeruginosa PAO1; ΔtlpQ, 10 h): 645081 μm3 mm-2 and 690688 μm3 mm-2 and 715157 μm3 mm-2; Biovolume of P. aeruginosa (P. aeruginosa PAO1; ΔtlpQ, 19 h): 1292148 μm3 mm-2 and 1288991 μm3 mm-2 and 1359959 μm3 mm-2
